One series deals with HaCaT cells. As to the kind of experiment: M5 cocktail psoriasis-like HaCaT keratinocyte model, live and dead cell numbers by MultiTox-Glo Multiplex Cytotoxicity Assay. As to the method: Immortalized human keratinocytes (HaCaT cells) purchased from AddexBio (San Diego, CA) were maintained in vitro in Dulbecco's modified Eagle's medium (DMEM) supplemented with 10% Fetal Bovine Serum (FBS) and antibiotics (100 U/mL penicillin and […] streptomycin) and cultured in an incubator with 5% CO2 at 37° C.
HaCaT cells were seeded at approximately 50% density (1×10^4 cells/well) and after 16 h the medium was replaced with 50 μL of pre-treatment medium containing different concentrations of allopurinol (0, 0.5, or 3 mM) or methotrexate (1 μM) and placed back into the incubator. Treatment media was prepared using standard media containing vehicle control (PBS) or M5 cocktail.
Other HaCaT cells were incubated in vitro for 72 hours in the presence of a M5 composition that also included 1.0 μM methotrexate, 0.5 mM allopurinol, 3.0 mM allopurinol, 0.5 mM oxypurinol, or 3.0 mM oxypurinol.
The number of live and dead cells were determined by the MultiTox-Glo Multiplex Cytotoxicity Assay (Promega, Madison WI) according to the manufacturer's protocol. A dilution series of cells was used to generate a standard curve for calculation of cell number in each well. The total number of cells was the sum of the live and dead cells.

In another series the test system is p21/Ki67. Description: MatTek PSE culture system, ratio of p21 to Ki67 mRNA levels. The class given is cell-based, human. As to conditions: after two days of treatment; treatment compositions of Table 5. Here is the method: Ki67 is a replication marker for cells and the lower the value, the lower the replication rate. P21 is a protein which is a marker for the inhibition of cell proliferation. Thus, an increased ratio of P21/Ki67 indicates decreased cell replication. FIG. 9 illustrates this ratio under several conditions as described in Example 2.
(§1) Other markers of cell proliferation were also measured, namely (protein p21), and four markers of inflammatory signaling (IL17A, IL23A, TNF-α, and transforming growth factor beta (TGF-β)) in the MatTek PSE culture system after two days of treatment were also determined. Ki67 is a nuclear protein and a replication marker. The marker levels were determined by isolating total RNA by a Promega SV96 Total RNA Isolation Vacuum System (Promega, Madison, WI) according to the manufacturer's instructions. The total RNA was reverse transcribed using an ABI High Capacity cDNA reverse transcription kit (Applied Biosystems, Foster City, CA). Quantitative real-time polymerase chain reaction (qPCR) was performed with the use of a SYBR Green PCR Master Mix (Applied Biosystems) according to the manufacturer's protocol and amplified on a StepOnePlus Real-Time PCR System.
To highlight effects on cell proliferation, the ratio of p21 to Ki67 mRNA levels were calculated, with the results being shown in FIG. 9.

A further series concerns Ki67. Description: MatTek PSE culture system, Ki67 level by PCR. The class given is cell-based, human. To be noted: for Relative Expression Levels, Ki67: after two days of treatment. Here is the method: The level of Ki67 in the MatTek tissue culture system was also determined. Ki67 is a nuclear protein and a replication marker. The level of Ki67 was determined by polymerase chain reaction (PCR) analysis with standard protocols. The relative levels are normalized with respect to the measured Ki67 level of the control at Day 0, which is adjusted to 1.0.
as §1

Another series relates to IL23A. Description: MatTek PSE culture system, IL23A mRNA by qPCR. As to conditions: after two days of treatment. The class given is cell-based, human. As to the method: as §1
For the next series, the system named is TNF-α. Description: MatTek PSE culture system, TNF-α mRNA by qPCR. The class given is cell-based, human. As to conditions: after two days of treatment. As to the method:
as §1

Another series deals with p21. Description: MatTek PSE culture system, p21 mRNA by qPCR. The class given is cell-based, human. To be noted: after two days of treatment. As to the method: as §1
Another series relates to IL17A. Description: MatTek PSE culture system, IL17A mRNA by qPCR. As to conditions: after two days of treatment. Type of series: cell-based, human. Here is the method: as §1
Background: In qPCR the cycle at which signal appears reflects the starting amount.

In a further series the test system is TGF-β. Description: MatTek PSE culture system, TGF-β mRNA by qPCR. As to conditions: after two days of treatment. Type of series: cell-based, human. Here is the method: as §1
For series [1], the system named is MatTek human PSE culture system (SOR-300-FT). Description: MatTek human PSE culture system, tissue layer thickness and histology.
Source text: The thickness of each of the three tissue layers of skin was monitored and measured after two days and after six days of exposure to the treatment medium in a blinded fashion by a board-certified and nationally respected pathologist.
Setting [2] is: 1.0 μM, 0 hours (baseline), M5 cocktail, ± standard deviation.
Where [3] appears, read: 1.0 μM, 0 hours (baseline), relative to 9177 live cells at zero hours.
Where [4] appears, read: 1.0 μM, 48 hours, M5 cocktail, ± standard deviation.
Where [5] appears, read: 1.0 μM, 48 hours, relative to 9177 live cells at zero hours.
Setting [6] is: 1.0 μM, 72 hours, M5 cocktail, ± standard deviation.
Setting [7] is: 1.0 μM, 72 hours, relative to 9177 live cells at zero hours.

Several values for one entry are separate records, joined by “and”; a condition that tells them apart may be missing. Identical values can stand only once.

Consider four compounds from patent US20250114362A1, “METHODS AND COMPOSITIONS FOR TREATMENT OF CUTANEOUS PROLIFERATIVE DISORDERS AND OTHER SKIN CONDITIONS” (ASYMMETRIC THERAPEUTICS, LLC, priority 2022, published 2025).

As to `O=c1[nH]c(=O)c2c[nH]nc2[nH]1` [oxypurinol], the “Cell Counts, 0 hours, Live” value with HaCaT cells (0.5 mM, 0 hours (baseline), M5 cocktail, ± standard deviation) is recorded as 9177 ± 90; in the series on HaCaT cells (3.0 mM, 0 hours (baseline), M5 cocktail, ± standard deviation) it was 9177 ± 90. In addition, the “Cell Ratios, 0 hours, Total” value with HaCaT cells (0.5 mM, 0 hours (baseline), relative to 9177 live cells at zero hours) is given as 1.087; in the series with HaCaT cells (3.0 mM, 0 hours (baseline), relative to 9177 live cells at zero hours), 1.087. For the same compound, the “Cell Counts, 48 hours, Total” value is reported as 14960 ± 100 in the series on HaCaT cells (0.5 mM, 48 hours, M5 cocktail, ± standard deviation) and 13069 ± 142 in the series on HaCaT cells (3.0 mM, 48 hours, M5 cocktail, ± standard deviation). The “Cell Ratios, 48 hours, Total” value worked out at 1.630 in the series on HaCaT cells (0.5 mM, 48 hours, relative to 9177 live cells at zero hours) and 1.424 in the series on HaCaT cells (3.0 mM, 48 hours, relative to 9177 live cells at zero hours). Besides, the “Cell Counts, 72 hours, Total” value with HaCaT cells (0.5 mM, 72 hours, M5 cocktail, ± standard deviation) worked out at 17036 ± 222; in the series on HaCaT cells (3.0 mM, 72 hours, M5 cocktail, ± standard deviation), 14228 ± 282. Further, the “Cell Ratios, 72 hours, Total” value was 1.86 and 1.856 in the series on HaCaT cells (0.5 mM, 72 hours, relative to 9177 live cells at zero hours); 1.55 with HaCaT cells (3.0 mM, 72 hours, relative to 9177 live cells at zero hours). Besides, the “Cell Counts, 0 hours, Dead” value came out at 801 ± 19 in the series on HaCaT cells (human, 0 h, 0.5 mM) and 801 ± 19 in the series with HaCaT cells (human, 0 h, 3 mM). For the same compound, the “Cell Ratios, 0 hours, Dead” value in the series on HaCaT cells (human, 0 h, 0.5 mM) is listed as 0.087; in the series on HaCaT cells (human, 0 h, 3 mM), 0.087. The “Cell Counts, 48 hours, Dead” value in the series on HaCaT cells (human, 48 h, 0.5 mM) turned out to be 2937 ± 65; in the series on HaCaT cells (human, 48 h, 3 mM) it was 2508 ± 124. For the same compound, the “Cell Ratios, 48 hours, Dead” value in the series with HaCaT cells (human, 48 h, 0.5 mM) is reported as 0.320; in the series with HaCaT cells (human, 48 h, 3 mM), 0.273. Also, the “Cell Counts, 72 hours, Dead” value stood at 4761 ± 200 in the series with HaCaT cells (human, 72 h, 0.5 mM) and 3691 ± 244 in the series with HaCaT cells (human, 72 h, 3 mM).

Vitamin D: the “p21/Ki67 ratio (mRNA levels)” value in the series on p21/Ki67 was “markedly increased”. The “Relative Ki67 Level” value in the series on Ki67 (100 nM, Day 6, normalized to control at Day 0 = 1.0) came to 1.99. Besides, the “Relative Expression Levels, Ki67” value in the series on Ki67 (100 nM) is on record as 0.34 ± 0.01. For the same compound, in the series with IL23A (100 nM), the “Relative Expression Levels, IL23A” value was 0.45 ± 0.07. For the same compound, in the series with TNF-α (100 nM), the “Relative Expression Levels, TNF-α” value is listed as 0.48 ± 0.17. In the series on p21 (100 nM), the “Relative Expression Levels, p21” value is recorded as 5.10 ± 0.70. Moreover, in the series on IL17A (100 nM), the “Relative Expression Levels, IL17A” value stood at 0.06 ± 0.03. In addition, the “Relative Expression Levels, TGF-β” value in the series with TGF-β (100 nM) is recorded as 0.35 ± 0.09. Moreover, in series [1] (100 nM, 2 days), the “Layer Thickness, Dermis” value worked out at 0.25 mm; the “Layer Thickness, Epidermis” value worked out at 0.15 mm; the “Layer Thickness, Stratum Corneum” value amounted to 0.05 mm. In series [1] (100 nM, 6 days), the “Layer Thickness, Dermis” value is 0.2 mm; the “Layer Thickness, Epidermis” value is 0.2 mm; the “Layer Thickness, Stratum Corneum” value turned out to be 0.2 mm.

On to `CN(Cc1cnc2nc(N)nc(N)c2n1)c1ccc(C(=O)N[C@@H](CCC(=O)O)C(=O)O)cc1` [methotrexate], for which, in the series with HaCaT cells (setting [2]), the “Cell Counts, 0 hours, Dead” value is 801 ± 19 and the “Cell Counts, 0 hours, Live” value is 9177 ± 90. In the series with HaCaT cells (setting [3]), the “Cell Ratios, 0 hours, Dead” value amounted to 0.087 and the “Cell Ratios, 0 hours, Total” value stood at 1.087. In the series on HaCaT cells (setting [4]), the “Cell Counts, 48 hours, Dead” value turned out to be 4826 ± 464 and the “Cell Counts, 48 hours, Total” value worked out at 11194 ± 545. In the series on HaCaT cells (setting [5]), the “Cell Ratios, 48 hours, Dead” value amounted to 0.526 and the “Cell Ratios, 48 hours, Total” value was 1.220. In the series on HaCaT cells (setting [6]), the “Cell Counts, 72 hours, Dead” value came out at 6300 ± 289 and the “Cell Counts, 72 hours, Total” value amounted to 11587 ± 593. For the same compound, in the series with HaCaT cells (setting [7]), the “Cell Ratios, 72 hours, Dead” value was 0.69 and 0.686; the “Cell Ratios, 72 hours, Total” value was 1.26 and 1.263.

Take `N[C@@H](CCC(=O)N[C@@H](CS)C(=O)NCC(=O)O)C(=O)O` [glutathione]: in the series on p21/Ki67, the “p21/Ki67 ratio (mRNA levels)” value is given as “markedly increased”. In the series on Ki67 (3 mM), the “Relative Expression Levels, Ki67” value is reported as 0.27 ± 0.01. The “Relative Expression Levels, IL23A” value with IL23A (3 mM) is given as 0.79 ± 0.14. Besides, the “Relative Expression Levels, TNF-α” value in the series on TNF-α (3 mM) was 0.29 ± 0.07. Further, in the series with p21 (3 mM), the “Relative Expression Levels, p21” value is listed as 1.35 ± 0.06. Also, the “Relative Expression Levels, IL17A” value in the series on IL17A (3 mM) amounted to 0.04 ± 0.02. Besides, the “Relative Expression Levels, TGF-β” value with TGF-β (3 mM) was 0.77 ± 0.10. In addition, in series [1] (3 mM, 2 days), the “Layer Thickness, Dermis” value is reported as 0.3 mm; the “Layer Thickness, Epidermis” value came out at 0.2 mm; the “Layer Thickness, Stratum Corneum” value was 0.15 mm.
